Target: T1, Heparanase (Homo sapiens, UniProt Q9Y251)
T1 sequence (Q9Y251 whole entry): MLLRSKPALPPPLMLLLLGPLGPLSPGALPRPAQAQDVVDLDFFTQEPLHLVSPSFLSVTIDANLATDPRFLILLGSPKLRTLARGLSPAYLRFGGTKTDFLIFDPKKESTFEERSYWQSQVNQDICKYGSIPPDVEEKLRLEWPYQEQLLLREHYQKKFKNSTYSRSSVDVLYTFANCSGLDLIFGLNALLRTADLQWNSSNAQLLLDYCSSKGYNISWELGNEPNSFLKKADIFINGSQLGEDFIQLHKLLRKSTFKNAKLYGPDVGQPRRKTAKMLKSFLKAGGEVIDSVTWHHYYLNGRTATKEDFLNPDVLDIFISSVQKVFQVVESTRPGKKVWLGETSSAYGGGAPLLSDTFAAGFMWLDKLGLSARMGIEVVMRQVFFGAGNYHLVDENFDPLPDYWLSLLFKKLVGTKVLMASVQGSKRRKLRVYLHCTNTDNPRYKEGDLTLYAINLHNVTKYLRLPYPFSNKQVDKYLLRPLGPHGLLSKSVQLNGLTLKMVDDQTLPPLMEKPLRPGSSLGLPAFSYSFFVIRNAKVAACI
Test: Inhibition of recombinant human heparanase incubated for 4 hrs by beta-scintillation counter analysis

- IC50: 5 nM
SMILES: O=S(=O)(O)OC[C@H]1O[C@H](O[C@H]2[C@H](OS(=O)(=O)O)[C@H](OS(=O)(=O)O)C(C3O[C@H](COS(=O)(=O)O)[C@@H](O[C@H]4O[C@H](COS(=O)(=O)O)[C@@H](O[C@H]5O[C@H](COS(=O)(=O)O)[C@@H](OS(=O)(=O)O)[C@H](OS(=O)(=O)O)[C@@H]5OS(=O)(=O)O)[C@H](OS(=O)(=O)O)[C@@H]4OS(=O)(=O)O)[C@H](OS(=O)(=O)O)[C@@H]3OS(=O)(=O)O)O[C@@H]2COS(=O)(=O)O)[C@@H](OS(=O)(=O)O)[C@@H](OS(=O)(=O)O)[C@@H]1O[C@H]1O[C@H](COS(=O)(=O)O)[C@@H](OS(=O)(=O)O)[C@H](OS(=O)(=O)O)[C@@H]1OS(=O)(=O)O (stereo partly specified)
